Type in all cases: cell-based
Test [1] concerns the target T1, human TLR4 (Homo sapiens, UniProt O00206+Q9Y6Y9). Kind of test: Competitive vs non-competitive antagonist type: agonist diluted in a fixed concentration of inhibitor, human TLR4 HEK-Blue SEAP. Details: host or cells: HEK-Blue (HEK293-derived) reporter cells. The following applies: fixed ML3 3 μM, ML4A 3 μM or Lipid IVa 0.1 μM; agonist PHAD or 3D-6A-PHAD diluted from 10 μM. Here is the method:
(§1) SEAP assays were performed to evaluate the extent to which TLR4 signaling was activated in HEK-Blue reporter cells expressing mouse or human receptors (CD14, MD2 and TLR4). Reporter cells were harvested when 70–80% confluent and plated in 96-well, flat-bottom microtiter plates either 1 h, one day or two days (5 × 10^4, 4 × 10^4 or 2 × 10^4 cells/well, respectively) before addition of TLR4 agonists for 18–24 h. Culture supernatants were transferred to U-bottom microtiter plates, centrifuged and transferred again to microtiter plates to ensure reporter cells were not present. The culture supernatants were added to QUANTI-BLUE substrate following instructions provided by the manufacturer (InvivoGen cat. nos. rep-qbl or rep-qbs) and incubated at 37°C in a tissue culture incubator. At successive intervals beginning 10 min after mixing the supernatants and substrate, the plates were placed in an Emax plate reader (Molecular Devices LLC) and optical density was measured at visible light wavelength […] (OD650). The shortest incubations at which dose response curve fits produced maximal R^2 ‘goodness of fit’ values, as determined by GraphPad Prism software, were used for analysis.
Pharmacological profiles of the TLR4 reagents were generated by performing dose response curves in one of four formats. 1) Agonist potency and efficacy (EC50 and height of dose plateau, respectively) were measured by diluting TLR4 reagents successively in complete culture medium [DMEM or RPMI supplemented with fetal bovine serum (FBS) or RPMI supplemented with human serum, depending on cell-type]. […] 2) Mixed agonist–antagonist potency and efficacy were measured by mixing a TLR4 agonist with a candidate antagonist at a fixed ratio and then performing half-log step dilutions before treating HEK reporter cells. […] 4) Inhibitory potency (IC50) was measured by diluting antagonists within a fixed concentration of a reference agonist, treating HEK reporter cells and performing SEAP assays as described.

In test [2] the target is T1, human TLR4. Kind of test: Mixed agonist-antagonist dose curves at fixed ratio, human TLR4 HEK-Blue SEAP. Details: host or cells: HEK-Blue (HEK293-derived) reporter cells. Here is the method: as §1
Pharmacological profiles of the TLR4 reagents were generated by performing dose response curves in one of four formats. 1) Agonist potency and efficacy (EC50 and height of dose plateau, respectively) were measured by diluting TLR4 reagents successively in complete culture medium [DMEM or RPMI supplemented with fetal bovine serum (FBS) or RPMI supplemented with human serum, depending on cell-type]. Half-log step dilutions were performed in 96-well, U-bottom microtiter plates using a multichannel pipette to transfer and mix the suspensions, with fresh tips used for each dilution step. One-tenth (20 μl) volumes from wells of the dilution plate were then transferred to wells containing cells that had been plated in nine-tenth volumes (180 μl) of culture medium. 2) Mixed agonist–antagonist potency and efficacy were measured by mixing a TLR4 agonist with a candidate antagonist at a fixed ratio and then performing half-log step dilutions before treating HEK reporter cells. Analysis of values obtained from SEAP assays of culture supernatants was then performed as described for preparations containing agonist alone, above. 3) Competitive vs allosteric or non-competitive antagonist type was evaluated by diluting a reference agonist within a fixed concentration of a candidate inhibitor in half-log steps, treating HEK reporter cells, performing SEAP assays and then analyzing the data as described for agonist assays, above. Competitive antagonists are characterized by values that reach the same dose plateau as for a reference, full agonist, while shifting potency to higher EC50 values. […] 4) Inhibitory potency (IC50) was measured by diluting antagonists within a fixed concentration of a reference agonist, treating HEK reporter cells and performing SEAP assays as described.

In test [3] the test system is mouse RAW264.7 cells. Kind of test: TNFα secretion (ELISA) by RAW264.7 cells. The following applies: RAW264.7, 18-24 h. Here is the method: (§2) Human and mouse HEK-Blue reporter cells express human or mouse CD14, MD2, and TLR4 and secreted embryonic alkaline phosphatase (SEAP) under control of a promoter with binding sites for NFκB and AP-1 transcription factors (InvivoGen cat. nos. hkb-htlr4 and hkb-mtlr4). Cells were cultured as directed by the supplier, with the exception that Glutamax (ThermoFisher cat. no. 10569010) was used in place of L-glutamine, and TrypLE Express (ThermoFisher cat. no. 12605010) was used to release adherent cells for each passage. […]
(§3) ELISA was performed to measure TNFα secretion by cell-lines and primary cells exposed to TLR4 reagents as a measure of receptor activation. […] Human or mouse TNα was quantified using ELISA kits as directed by the kit supplier (eBioscience cat. nos. 88-7324-77 and 88-7324-88, respectively) using an Emax plate reader and SoftMax Pro analytical software (Molecular Devices, LLC). […]
(§4) Pharmacological profiles of the TLR4 reagents were generated by performing dose response curves in one of four formats. 1) Agonist potency and efficacy (EC50 and height of dose plateau, respectively) were measured by diluting TLR4 reagents successively in complete culture medium [DMEM or RPMI supplemented with fetal bovine serum (FBS) or RPMI supplemented with human serum, depending on cell-type]. […]
(In general: In an ELISA, binding on a coated surface is turned into a signal by an enzyme label.)

The subject of test [4] is human THP-1 cells. Kind of test: TNFα secretion (ELISA) by THP-1 cells. To be noted: THP-1, PMA-treated, 18-24 h. Here is the method: as §2, §3, §4
Setting [5] is: mixed with 3D-6A-PHAD at 5:1 antagonist:agonist.
The mark [6] stands for this setting: mixed with PHAD, ML4A up to 30:1 and 60:1 antagonist:agonist.

Each structure is given as a SMILES string.

T1 sequence (O00206 24-839): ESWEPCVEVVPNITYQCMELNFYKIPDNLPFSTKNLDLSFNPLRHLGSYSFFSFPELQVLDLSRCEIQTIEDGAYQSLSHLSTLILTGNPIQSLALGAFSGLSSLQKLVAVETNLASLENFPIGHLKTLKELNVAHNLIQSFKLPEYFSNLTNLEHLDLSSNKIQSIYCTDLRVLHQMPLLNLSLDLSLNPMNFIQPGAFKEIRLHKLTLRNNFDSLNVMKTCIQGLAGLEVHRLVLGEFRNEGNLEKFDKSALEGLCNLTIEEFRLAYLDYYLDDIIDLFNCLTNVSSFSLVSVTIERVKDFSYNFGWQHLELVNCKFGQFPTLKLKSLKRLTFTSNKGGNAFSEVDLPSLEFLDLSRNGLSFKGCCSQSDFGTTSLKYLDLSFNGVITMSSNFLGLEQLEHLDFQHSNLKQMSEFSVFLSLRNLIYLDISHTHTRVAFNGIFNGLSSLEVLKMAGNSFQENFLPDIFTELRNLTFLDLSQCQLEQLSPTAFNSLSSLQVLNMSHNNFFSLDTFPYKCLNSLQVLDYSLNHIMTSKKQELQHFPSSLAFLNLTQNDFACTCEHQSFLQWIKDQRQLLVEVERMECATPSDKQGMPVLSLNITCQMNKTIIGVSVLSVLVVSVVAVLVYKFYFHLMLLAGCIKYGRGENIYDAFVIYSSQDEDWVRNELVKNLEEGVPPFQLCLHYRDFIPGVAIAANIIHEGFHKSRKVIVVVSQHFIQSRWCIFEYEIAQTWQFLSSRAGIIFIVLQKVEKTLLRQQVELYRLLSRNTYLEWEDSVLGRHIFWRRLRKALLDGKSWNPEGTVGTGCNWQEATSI
T1 sequence (Q9Y6Y9 17-160 limits assumed): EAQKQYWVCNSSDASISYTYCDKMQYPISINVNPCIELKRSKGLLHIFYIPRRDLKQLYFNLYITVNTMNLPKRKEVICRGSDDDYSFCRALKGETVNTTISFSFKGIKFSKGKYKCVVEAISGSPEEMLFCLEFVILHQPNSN

For the compound `CCCCCCCCCCCC(=O)OC(CCCCCCCCCCC)CC(=O)NC1C(OCC2OC(O)C(NC(=O)CC(O)CCCCCCCCCCC)C(O)C2O)OC(CO)C(OP(=O)(O)O)C1OC(=O)CC(O)CCCCCCCCCCC` (stereo not shown) [ML4A], the “antagonist type” value in test [1] is given as “competitive antagonists of human TLR4”. Moreover, the “effect on agonist dose curve in fixed-ratio mixture” value in test [2] (setting [5]) is given as “appeared to limit its activity”; in test [2] (setting [6]), “very modestly reduced TLR4 stimulatory activity”.
Take `CCCCCCCCCCCC(=O)OC(CCCCCCCCCCC)CC(=O)NC1C(OCC2OC(O)C(NC(=O)CC(O)CCCCCCCCCCC)C(O)C2O)OC(CO)C(OP(=O)(O)O)C1O` (stereo not shown) [ML3]: the “agonist profile, TNFα production” value in test [3] and in test [4] was “largely inactive” throughout. Also, the “antagonist type” value in test [1] is recorded as “competitive antagonists of human TLR4”. Further, the entries for the “effect on agonist dose curve in fixed-ratio mixture” value in test [2] (setting [5]) and in test [2] (setting [6]) were “appeared to limit its activity” and “very modestly reduced TLR4 stimulatory activity”, respectively.
Consider `CCCCCCCCCCCCCCCC(=O)OC(CCCCCCCCCCC)CC(=O)NC1C(O)OC(COC2OC(CO)C(OP(=O)(O)O)C(O)C2NC(=O)CC(CCCCCCCCCCC)OC(=O)CCCCCCCCCCC)C(O)C1O` (stereo not shown) [ML4B], for which the “agonist profile, TNFα production” value in test [3] and in test [4] was “largely inactive” throughout.

These data come from paper PMC7596181 (Frontiers in Immunology, 2020).
